In ChEMBL document CHEMBL4190324 (Eur J Med Chem, 2017):

Columns and labels:
Acetylcholinesterase = Acetylcholinesterase (Electrophorus electricus, UniProt O42275); experiment: Inhibition of electric eel AChE using acetylthiocholine as substrate preincubated for 20 mins followed by substrate addition measured every 2 mins for 20 mins by Ellman's method
[1] = Cytotoxicity against HEK293 cells assessed as cell viability up to 100 uM after 24 hrs by MTT assay relative to control; assay type: cell-based; conditions: human, read-out: Activity
[2] = Hepatotoxicity against human HepG2 cells assessed as reduction in cell viability at 50 uM after 24 hrs by MTT assay; assay type: toxicity, cell-based; conditions: hepg2, 24 h
Cholinesterase = Cholinesterase (Equus caballus, UniProt P81908)
Chain of Cholinesterase (P81908 whole entry): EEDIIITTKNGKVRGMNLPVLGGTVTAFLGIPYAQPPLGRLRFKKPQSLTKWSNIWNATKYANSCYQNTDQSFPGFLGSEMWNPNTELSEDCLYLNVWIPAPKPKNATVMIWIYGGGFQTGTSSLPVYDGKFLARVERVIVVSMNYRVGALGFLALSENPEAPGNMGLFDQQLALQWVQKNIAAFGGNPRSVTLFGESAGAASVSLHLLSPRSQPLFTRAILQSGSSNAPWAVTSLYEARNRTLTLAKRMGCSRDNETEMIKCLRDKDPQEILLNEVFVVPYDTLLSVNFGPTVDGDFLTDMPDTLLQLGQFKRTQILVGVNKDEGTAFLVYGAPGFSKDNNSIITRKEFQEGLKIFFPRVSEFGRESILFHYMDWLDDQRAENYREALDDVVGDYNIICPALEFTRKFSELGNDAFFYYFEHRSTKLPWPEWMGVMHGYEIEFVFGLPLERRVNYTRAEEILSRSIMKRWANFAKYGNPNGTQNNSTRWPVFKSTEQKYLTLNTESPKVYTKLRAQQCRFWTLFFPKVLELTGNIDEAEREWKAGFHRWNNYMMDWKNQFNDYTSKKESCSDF
Description: Inhibition of equine serum BChE using butyrylthiocholine as substrate preincubated for 20 mins followed by substrate addition measured every 2 mins for 20 mins by Ellman's method

HEK293 [3] = experiment: Cytotoxicity against HEK293 cells at 0.1 to 300 uM after 24 hrs by MTT assay; assay type: cell-based; conditions: human, hek293, 24 h
[4] = Hepatotoxicity against human HepG2 cells assessed as reduction in cell viability at 300 uM after 24 hrs by MTT assay; assay type: toxicity, cell-based; conditions: hepg2, 24 h
[5] = Hepatotoxicity against human HepG2 cells assessed as reduction in cell viability at 10 to 300 uM after 72 hrs by MTT assay; assay type: toxicity, cell-based; conditions: hepg2, 72 h
HEK293 [6] = experiment: Cytotoxicity against HEK293 cells at > 50 uM after 24 hrs by MTT assay; assay type: cell-based; conditions: human, hek293, 24 h

Chain of Acetylcholinesterase (O42275 whole entry): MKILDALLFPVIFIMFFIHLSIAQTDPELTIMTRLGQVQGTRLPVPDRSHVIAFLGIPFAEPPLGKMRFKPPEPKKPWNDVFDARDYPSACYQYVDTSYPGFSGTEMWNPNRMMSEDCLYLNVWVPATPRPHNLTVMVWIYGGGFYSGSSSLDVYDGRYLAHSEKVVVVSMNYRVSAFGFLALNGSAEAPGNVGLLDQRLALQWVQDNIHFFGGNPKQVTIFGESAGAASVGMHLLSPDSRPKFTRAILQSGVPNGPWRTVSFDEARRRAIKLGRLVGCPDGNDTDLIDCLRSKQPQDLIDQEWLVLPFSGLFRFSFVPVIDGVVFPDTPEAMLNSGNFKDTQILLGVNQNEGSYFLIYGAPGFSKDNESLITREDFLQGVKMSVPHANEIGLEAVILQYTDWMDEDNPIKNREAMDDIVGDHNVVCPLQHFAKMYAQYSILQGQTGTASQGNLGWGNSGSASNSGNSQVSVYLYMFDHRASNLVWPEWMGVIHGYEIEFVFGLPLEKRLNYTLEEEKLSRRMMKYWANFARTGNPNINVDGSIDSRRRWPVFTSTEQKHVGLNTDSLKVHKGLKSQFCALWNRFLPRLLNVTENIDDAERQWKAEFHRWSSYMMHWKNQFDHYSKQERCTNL

Row | SMILES | IC50 (Acetylcholinesterase) [nM] | viability at 24 h [1] [%] | Activity [2] | IC50 (Cholinesterase) [nM] | Activity (HEK293 [3]) | Activity [4] | Activity [5] | Activity (HEK293 [6])
1 | CNC(=O)C1CCc2nc3cc(Br)ccc3c(N)c2C1 (configuration not stated) | 28.6 | > 80 | Toxic |  |  |  |  | 
2 | Nc1c2c(nc3ccccc13)CCC(C(=O)NCc1ccccc1)C2 (configuration not stated) | 37.2 |  |  | 10800 |  |  |  | 
3 | NNC(=O)C1CCc2nc3ccccc3c(N)c2C1 (configuration not stated) | 13 |  |  |  | Non-Toxic | Non-Toxic | Non-Toxic | 
4 | Nc1c2c(nc3cc(Br)ccc13)CCC(C(=O)NCCc1ccccc1)C2 (configuration not stated) | 24.1 |  | Toxic | 7170 |  |  |  | Toxic
5 | Nc1c2c(nc3ccccc13)CCC(C(=O)NCCCc1ccccc1)C2 (configuration not stated) | 5.17 |  | Toxic | 3680 |  |  |  | Toxic
6 | Cn1cc(-c2ccc3c(N)c4c(nc3c2)CCC(C(=O)NCc2ccccc2)C4)cn1 (configuration not stated) | 191 |  |  | 2260 |  |  |  | 
7 | Nc1c2c(nc3cc(-c4cncnc4)ccc13)CCC(C(=O)NCCCc1ccccc1)C2 (configuration not stated) | 40.8 |  |  | 18000 |  |  |  | Toxic
8 | Nc1c2c(nc3cc(Br)ccc13)CCC(C(=O)NCCCc1ccccc1)C2 (configuration not stated) | 7.14 |  | Toxic | 5110 |  |  |  | Toxic
9 | Cn1cc(-c2ccc3c(N)c4c(nc3c2)CCC(C(=O)NCCCc2ccccc2)C4)cn1 (configuration not stated) | 57.6 |  |  | 2770 |  |  |  | 
10 | Cn1nccc1NC(=O)C1CCc2nc3cc(Br)ccc3c(N)c2C1 (configuration not stated) | 17.7 | > 80 |  | 20900 |  |  |  | 
11 | Cn1cc(-c2ccc3c(N)c4c(nc3c2)CCC(C(=O)NCCc2ccccc2)C4)cn1 (configuration not stated) | 189 |  |  | 10600 |  |  |  | Toxic
12 | Nc1c2c(nc3cc(Br)ccc13)CCC(C(=O)NCc1ccccc1)C2 (configuration not stated) | 33.7 | > 80 |  | 10200 |  |  |  | Toxic
13 | Nc1c2c(nc3ccccc13)CCC(C(=O)NCCc1ccccc1)C2 (configuration not stated) | 16.8 |  | Toxic | 4050 |  |  |  | Toxic
